The values that follow come from patent US20100029643A1 (ASTRAZENECA AB, priority 2006, published 2010).

The term inhibition denotes how much of the control response was suppressed. A higher inhibition goes with a strong effect. As usually defined, the EC50 is the concentration giving half of the maximal effect. Lower therefore signals higher potency in that assay.

T1 sequence (P21453 whole entry): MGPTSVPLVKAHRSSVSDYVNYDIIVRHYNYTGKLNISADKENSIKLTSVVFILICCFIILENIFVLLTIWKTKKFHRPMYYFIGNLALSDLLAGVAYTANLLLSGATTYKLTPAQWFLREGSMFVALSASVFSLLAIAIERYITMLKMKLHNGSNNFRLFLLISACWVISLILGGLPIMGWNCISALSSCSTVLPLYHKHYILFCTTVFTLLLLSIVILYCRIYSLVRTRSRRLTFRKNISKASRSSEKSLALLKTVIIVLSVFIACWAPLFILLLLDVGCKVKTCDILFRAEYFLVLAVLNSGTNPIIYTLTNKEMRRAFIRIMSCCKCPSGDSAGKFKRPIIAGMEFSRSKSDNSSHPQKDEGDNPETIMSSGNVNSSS

The first experiment addresses T1, Edg-1/S1P1 receptor (Homo sapiens, UniProt P21453).
T1 construct: expressed in transfected cells; host or cells: human osteogenic sarcoma U2OS cells: Edg-1 Transfluor U2OS WT Clone #37 (assay I), Edg-1 Transfluor U2OS Clone #3 (assay II)
Nature of the experiment: In vitro cell based receptor activation assay - Transfluor assay (assay I or II; beta-arrestin GFP relocalization after S1P stimulation). The note with it: at 3.30 μM (run with this as top concentration). From the text:
The following assays can be used to measure the effects of the compounds of the present invention as S1P1/Edg1 inhibitors.
I. In Vitro Cell Based Receptor Activation Assay-Transfluor Assay
This cell-based assay was designed to assess the ability of small molecule antagonists to inhibit activation of the GPCR S1P1 in the presence of its cognate ligand S1P. The assay used technology initially developed by Norak Biosciences (Xsira Pharmaceutical) and presently owned by Molecular Devices. A human osteogenic sarcoma (U2OS) cell line overexpressing the Edg-1/S1P1) receptor as well as a beta-arrestin/green fluorescent protein (GFP) construct hereafter termed Edg-1 Transfluor U2OS WT Clone #37 was employed.
Using a high content screening approach (Cellomics Arrayscan), receptor activity was measured by assessment of the relocalization of beta-arrestin GFP in response to stimulation of Edg-1 by SIP. Specifically, Edg-1 Transfluor U2OS WT Clone #37 cells were plated at a density of 6250 cells in 40 μL medium per well in 384 well plastic bottomed microtiter plates (BD Falcon) and incubated overnight at 37° C./5% CO2. Prior to screening, compounds were dissolved in 100% dimethyl sulfoxide (DMSO) to a final stock concentration of 10 mM. Compounds were then serially diluted at 30× final concentration in Edg-1 Transfluor cell growth medium containing […] using the Tecan Genesis instrument. These 30× plates were then diluted to 6× final concentration with Edg-1 Transfluor growth medium just prior to dosing. Cells were then dosed with 10 μL per well of 6× compound dilutions or 6% DMSO and pre-incubated for 15 minutes at room temperature. Cell plates were dosed with 10 μL per well 6× S1P Edg-1 Transfluor growth medium, then incubated for 45 minutes at 37° C./5% CO2. Final concentration in the well of DMSO was 1%, compound was IX (3-fold, 9 point IC50 dilutions starting at 100 μM final concentration), and either 375 nM or […] SIP ligand. Cell plates were then fixed by adding 50 μL per well of 5% formaldehyde in 1× Dulbecco's phosphate buffered saline (DPBS) directly and incubating for 30 minutes at room temperature in darkness. Fixative was removed and replaced with 50 μL per well of 1×DPBS, after which cells were stained with 10 μg/mL final concentration of Hoechst 33342 (Molecular Probes) for 15 minutes at room temperature in darkness. Stain was then removed from the plates and replaced with 50 μL per well of 1×DPBS using the BioTek ExL405 plate washer. Plates were then sealed and analysed on the Cellomics Arrayscan using the GPCR signalling algorithm. EC50 values were then calculated using IDBS ActivityBase software.
II. In Vitro Cell Based Receptor Activation Assay-Transfluor Assay
This cell-based assay was designed to assess the ability of small molecule antagonists to inhibit activation of the GPCR S1P1 in the presence of its cognate ligand S1P. The assay used technology initially developed by Norak Biosciences (Xsira Pharmaceutical) and presently owned by Molecular Devices (MDS Analytical Technologies). A human osteogenic sarcoma (U2OS) cell line overexpressing the Edg-1/S1P1) receptor as well as a beta-arrestin/green fluorescent protein (GFP) construct hereafter termed Edg-1 Transfluor U2OS Clone #3 was employed.
Using a high content screening approach (Molecular Devices Image Express), receptor activity was measured by assessment of the relocalization of beta-aiTestin GFP in response to stimulation of Edg-1 by S1P. Specifically, Edg-1 Transfluor U2OS Clone #3 cells were plated at a density of 6250 cells in 44 μL medium per well in 384 well plastic bottomed microtiter plates (BD Falcon) and incubated overnight at 37° C./5% CO2. Prior to screening, compounds were dissolved in 100% dimethyl sulfoxide (DMSO) to a final stock concentration of 10 mM. Compounds were then serially diluted at 10× final concentration in Edg-1 Transfluor cell growth medium containing 6% DMSO using the BioMek instrument. […]
With `CCCn1c(C(C)NS(=O)(=O)c2ccc(Cl)cc2)nc2ccccc21` (centres unmarked) [Example 17, 4-Chloro-N-[1-(1-propyl-1H-benzimidazol-2-yl)ethyl]-benzenesulfonamide], the inhibition at 3.3 µM came out at 92.8%.

Still in this experiment, the particulars now being: at 3.50 μM (titrated from top concentration 10 μM).
Compound `CCn1c([C@@H](C)NS(=O)(=O)c2ccc(Cl)cc2)nc2ccc(CO)cc21` (stereo in doubt) [Example 68, 4-Chloro-N-{1-[1-ethyl-6-(hydroxymethyl)-1H-benzimidazol-2-yl]ethyl}benzenesulfonamide] had an inhibition at 3.5 µM of 94.4%. On the same count and under the same terms, the result for `CCn1c([C@@H](C)NS(=O)(=O)c2ccc(C#N)cc2)nc2cnc(C3CC3)cc21` (stereo in doubt) [Example 183, 4-Cyano-N-[1-(6-cyclopropyl-1-ethyl-1H-imidazo[4,5-c]pyridin-2-yl)-ethyl]-benzenesulfonamide] reads 83.4%; that for `CCC(NS(=O)(=O)c1ccc(Cl)cc1)c1nc2ccccc2n1CC` (centres unmarked) [Example 2, 4-Chloro-N-[1-(1-ethyl-1H-benzoimidazol-2-yl)propyl]-benzenesulfonamide], 94%. Still for that read-out and setting: the result for `CCn1c([C@@H](C)NS(=O)(=O)c2ccc(Cl)cc2)nc2ccc(C(F)(F)F)cc21` [Example 9, 4-Chloro-N-{(1R)-1-[1-ethyl-6-(trifluoromethyl)-1H-benzimidazol-2-yl]ethyl} benzene-sulfonamide] reads 84.8%.

In the case of `CCn1c(C(C)NS(=O)(=O)c2ccc(Cl)cc2)nc2ncccc21` (centres unmarked) [Example 12, 4-Chloro-N-[1-(1-ethyl-1H-imidazo[4,5-b]pyridin-2-yl)-ethyl]-benzenesulfonamide], the inhibition at 3.5 µM was 93.3%. The same measure, in the same setting: the value for `CCn1c(C(C)(C)NS(=O)(=O)c2ccc(Cl)cc2)nc2ccccc21` [Example 16, 4-Chloro-N-[1-(1-ethyl-1H-benzoimidazol-2-yl)-1-methyl-ethyl]-benzenesulfonamide] was 96.2%.

The experiment is the same for the next values; noted with them: at 3.70 μM (titrated from top concentration 100 μM).
“4-Chloro-N-{1-[1-ethyl-6-(methylsulfonyl)-1H-benzimidazol-2-yl]ethyl}benzenesulfonamide [Example 80]”: the “% inhibition” value is “[drawing 92] 4-Chloro-N-{1-[1-ethyl-6- (methylsulfonyl)-1H- benzimidazol-2-yl]ethyl}benzenesulfonamide (22.57% inhibition at 3.70 μM)”. Turning to `CCOC(=O)c1ccc2nc([C@@H](C)NS(=O)(=O)c3ccc(Cl)cc3)n(CC)c2c1` (stereo in doubt) [Example 67, Ethyl 2-(1-{[(4-chlorophenyl)sulfonyl]amino}-ethyl)-1-ethyl-1H-benzimidazole-6-carboxylate], testing at 3.7 µM gave an inhibition of 91.3%. `CCn1c([C@@H](C)NS(=O)(=O)c2ccc(Cl)cc2)nc2ccc(C(=O)N(C)C)cc21` (stereo in doubt) [Example 72, 2-(1-{[(4-Chlorophenyl)sulfonyl]amino}-ethyl)-1-ethyl-N,N-dimethyl-1H-benzimidazole-6-carboxamide] yielded an inhibition at 3.7 µM of 21.7%. Regarding `CCn1c([C@@H](C)NS(=O)(=O)c2ccc(Cl)cc2)nc2ccc(C(=O)N3CCOCC3)cc21` (stereo in doubt) [Example 73, 4-Chloro-N-{1-[1-ethyl-6-(morpholin-4-ylcarbonyl)-1H-benzimidazol-2-yl]ethyl}benzenesulfonamide], the inhibition at 3.7 µM came out at 8.88%. Still for that read-out and setting: the value for `CCn1c([C@@H](C)NS(=O)(=O)c2ccc(Cl)cc2)nc2ccc(SC)cc21` (stereo in doubt) [Example 79, 4-Chloro-N-{1-[1-ethyl-6-(methylthio)-1H-benzimidazol-2-yl]ethyl}benzenesulfonamide] was 94.9%; that for `CCn1c(C(NS(=O)(=O)c2ccc(Cl)cc2)C(C)C)nc2ccccc21` (centres unmarked) [Example 3, 4-Chloro-N-[1-(1-ethyl-1H-benzimidazol-2-yl)-2-methyl-propyl]benzenesulfonamide] was 59%. Still for that read-out and setting: the result for `CCn1c(C(CC(C)C)NS(=O)(=O)c2ccc(Cl)cc2)nc2ccccc21` (centres unmarked) [Example 4, 4-Chloro-N-[1-(1-ethyl-1H-benzimidazol-2-yl)-3-methyl-butyl}benzenesulfonamide] reads 66.4%; that for `CCn1c(C(Cc2ccccc2)NS(=O)(=O)c2ccc(Cl)cc2)nc2ccccc21` (centres unmarked) [Example 5, 4-Chloro-N-[1-(1-ethyl-1H-benzimidazol-2-yl)-2-phenyl-ethyl]benzenesulfonamide], 73.2%. Same read-out and setting: the value for `CCn1c(C(Cc2ccc(F)cc2)NS(=O)(=O)c2ccc(Cl)cc2)nc2ccccc21` (centres unmarked) [Example 6] was 77.7%. `CCn1c(C(Cc2cccnc2)NS(=O)(=O)c2ccc(Cl)cc2)nc2ccccc21` (centres unmarked) [Example 7, 4-Chloro-N-[1-(1-ethyl-1H-benzimidazol-2-yl)-2-pyridin-3-yl-ethyl]benzene-sulfonamide] came in with an inhibition at 3.7 µM of 79.7%. On the same count and under the same terms, the value for `CC(NS(=O)(=O)c1ccc(Cl)cc1)c1nc2ccccc2n1C` (centres unmarked) [Example 8, 4-Chloro-N-[1-(1-methyl-1H-benzimidazol-2-yl)ethyl]-benzenesulfonamide] was 91.2%; that for `CCn1c(C(C)NS(=O)(=O)c2ccc(Cl)cc2)nc2ccc(Cl)cc21` (centres unmarked) [Example 10, 4-Chloro-N-[1-(6-chloro-1-ethyl-1H-benzimidazol-2-yl)ethyl]benzenesulfonamide] was 89.9%; that for `CCn1c([C@@H](C)NS(=O)(=O)c2ccc(Cl)cc2)nc2cccc(OC)c21` [Example 11, 4-Chloro-N-[(1R)-1-(1-ethyl-7-methoxy-1H-benzimidazol-2-yl)ethyl]benzene-sulfonamide] was 82%.

Consider `CCn1c(C(C)NS(=O)(=O)c2ccc(Cl)cc2)nc2cnccc21` (centres unmarked) [Example 13, 4-Chloro-N-[1-(1-ethyl-1H-imidazo[4,5-c]pyridin-2-yl)ethyl]benzene sulfonamide], for which the inhibition at 3.7 µM is 72.8%. The same measure, in the same setting: the result for `CCn1c(C(C)NS(=O)(=O)c2ccc(Cl)cc2)nc2ccncc21` (centres unmarked) [Example 14, 4-Chloro-N-[1-(3-ethyl-3H-imidazo[4,5-c]pyridin-2-yl)ethyl] benzene sulfonamide] reads 72.8%; that for `CCn1c(C(C)NS(=O)(=O)c2ccc(Cl)cc2)nc2cccnc21` (centres unmarked) [Example 15, 4-Chloro-N-[1-(3-ethyl-3H-imidazo[4,5-b]pyridin-2-yl)ethyl]benzenesulfonamide], 61.5%. On the same count and under the same terms, the result for `CC(NS(=O)(=O)c1ccc(Cl)cc1)c1nc2ccccc2n1CC1CC1` (centres unmarked) [Example 18, 4-Chloro-N-{1-[1-(cyclopropylmethyl)-1H-benzimidazol-2-yl]ethyl}-benzenesulfonamide] reads 100%; that for `CC(C)Cn1c(C(C)NS(=O)(=O)c2ccc(Cl)cc2)nc2ccccc21` (centres unmarked) [Example 19, 4-Chloro-N-[1-(1-isobutyl-1H-benzimidazol-2-yl)ethyl]-benzenesulfonamide], 16.4%.

For `CCn1c([C@@H](C)NS(=O)(=O)c2ccc(Cl)cc2)nc2cc(F)c(F)cc21` [Example 20, 4-Chloro-N-[(1R)-1-(1-ethyl-5,6-difluoro-1H-benzimidazol-2-yl)ethyl]benzenesulfonamide], 3.7 µM produced 79.5% inhibition.

Still in this experiment, the particulars now being: one or the other of the two Transfluor assays; Edg-1 Transfluor U2OS cells, S1P ligand.
Compound `CCn1c([C@H](C)NS(=O)(=O)c2ccc(Cl)cc2)nc2cnccc21` [4-chloro-N-[(1S)-1-(1-ethyl-1H-imidazo[4,5-c]pyridin-2-yl)ethyl]benzenesulfonamide] registered an EC50 greater than 33 µM.

The compound `CC(NS(=O)(=O)c1ccc(Cl)cc1)c1nc2ccccc2n1CC1CC1` (centres unmarked) [Example 18, 4-Chloro-N-{1-[1-(cyclopropylmethyl)-1H-benzimidazol-2-yl]ethyl}-benzenesulfonamide] gave an EC50 of 0.896 µM. For the compound `CC(C)Cn1c(C(C)NS(=O)(=O)c2ccc(Cl)cc2)nc2ccccc21` (centres unmarked) [Example 19, 4-Chloro-N-[1-(1-isobutyl-1H-benzimidazol-2-yl)ethyl]-benzenesulfonamide], the EC50 was found to be 10.3 µM. Compared with the last compound, the EC50 is about 11-fold higher.
